These results are taken from the supplement of paper PMC10307832.

Common to all, as to experiment: relative viability (nuclei count vs DMSO), 5 days (fraction); higher = more cells survive
Compound in the assay “Elesclomol + Vorinostat”: CN(NC(=O)CC(=O)NN(C)C(=S)c1ccccc1)C(=S)c1ccccc1 [Elesclomol] + O=C(CCCCCCC(=O)Nc1ccccc1)NO [Vorinostat] (partner 1 µM)
The method in brief:
(§1)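 Values are medians from duplicate plates. Each reflects relative viability, defined as the nuclei count of treated wells over that of vehicle wells. Lung cancer cell lines in 1536-well plates were pin-tool dosed one day after seeding with one drug alone or with a fixed anchor-drug dose plus five library-drug doses (not always all listed) in √10 steps, then fixed, stained and imaged at 4× after 5 days.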

Compound in the assay “Elesclomol + AZD7762”: CN(NC(=O)CC(=O)NN(C)C(=S)c1ccccc1)C(=S)c1ccccc1 [Elesclomol] + NC(=O)Nc1cc(-c2cccc(F)c2)sc1C(=O)N[C@H]1CCCNC1 [AZD7762] (partner 0.2 µM)
The method in brief:
as §1

Compound in the assay “Elesclomol + Lapatinib”: CN(NC(=O)CC(=O)NN(C)C(=S)c1ccccc1)C(=S)c1ccccc1 [Elesclomol] + CS(=O)(=O)CCNCc1ccc(-c2ccc3ncnc(Nc4ccc(OCc5cccc(F)c5)c(Cl)c4)c3c2)o1 [Lapatinib] (partner 2 µM)
The method in brief: as §1

Compound in the assay “Elesclomol + Trametinib”: CN(NC(=O)CC(=O)NN(C)C(=S)c1ccccc1)C(=S)c1ccccc1 [Elesclomol] + CC(=O)Nc1cccc(-n2c(=O)n(C3CC3)c(=O)c3c(Nc4ccc(I)cc4F)n(C)c(=O)c(C)c32)c1 [Trametinib] (partner 0.02 µM)
The method in brief: as §1

Compound in the next assay: CN(NC(=O)CC(=O)NN(C)C(=S)c1ccccc1)C(=S)c1ccccc1 [Elesclomol]
The method in brief:
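Lung cancer cell lines in 1536-well plates were kept overnight at 37 °C, then pinned with five library-drug doses (not always all listed) spaced by √10 on vehicle-anchored plates. After 5 days without medium change, cells were fixed, permeabilised and Hoechst-stained in one step, imaged at 4×, and nuclei were counted with MetaXpress. Viability is treated-well nuclei divided by vehicle-well nuclei, taken as the median over plates. Plates passed only with control CV below 25% and at least one doubling.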

Consider NCI-H1755, for which the relative viability with Elesclomol + Vorinostat (first compound 0.003162 µM) was found to be 0.742; with Elesclomol + Vorinostat (first compound 0.01 µM), 0.637; with Elesclomol + Vorinostat (first compound 0.03162 µM) it was 0.787; with Elesclomol + Vorinostat (first compound 0.1 µM) it was 0.364; with Elesclomol + AZD7762 (first compound 0.003162 µM) it was 0.457; with Elesclomol + AZD7762 (first compound 0.01 µM), 0.349. Moreover, the relative viability with Elesclomol + AZD7762 (first compound 0.03162 µM) is 0.38; with Elesclomol + AZD7762 (first compound 0.1 µM), 0.406; in the assay with Elesclomol + Lapatinib (first compound 0.003162 µM), 1.05; with Elesclomol + Lapatinib (first compound 0.01 µM), 0.939; in the assay with Elesclomol + Lapatinib (first compound 0.03162 µM), 0.887; in the assay with Elesclomol + Lapatinib (first compound 0.1 µM) it was 0.236. The relative viability with Elesclomol + Trametinib (first compound 0.003162 µM) was determined as 0.772; with Elesclomol + Trametinib (first compound 0.01 µM), 0.77; in the assay with Elesclomol + Trametinib (first compound 0.03162 µM) it was 0.774; with Elesclomol + Trametinib (first compound 0.1 µM), 0.56; in the assay with Elesclomol (0.003162 µM), 1.01; with Elesclomol (0.01 µM), 0.965. Moreover, the results for the relative viability in the assay with Elesclomol (0.03162 µM) and with Elesclomol (0.1 µM) were 0.997 and 0.801, respectively.

On to NCI-H2087, for which the relative viability with Elesclomol + Vorinostat (first compound 0.003162 µM) stood at 0.528; with Elesclomol + Vorinostat (first compound 0.01 µM), 0.448; with Elesclomol + Vorinostat (first compound 0.03162 µM), 0.431; with Elesclomol + Vorinostat (first compound 0.1 µM), 0.313; in the assay with Elesclomol + AZD7762 (first compound 0.003162 µM), 1.23; with Elesclomol + AZD7762 (first compound 0.01 µM) it was 0.767. In addition, the relative viability in the assay with Elesclomol + AZD7762 (first compound 0.03162 µM) was 0.589; with Elesclomol + AZD7762 (first compound 0.1 µM), 0.279; with Elesclomol + Lapatinib (first compound 0.003162 µM), 0.895; with Elesclomol + Lapatinib (first compound 0.01 µM), 0.519; with Elesclomol + Lapatinib (first compound 0.03162 µM), 0.58; in the assay with Elesclomol + Lapatinib (first compound 0.1 µM) it was 0.569. Further, the relative viability with Elesclomol + Trametinib (first compound 0.003162 µM) is 0.204; with Elesclomol + Trametinib (first compound 0.01 µM), 0.149; with Elesclomol + Trametinib (first compound 0.03162 µM), 0.153; with Elesclomol + Trametinib (first compound 0.1 µM) it was 0.0863; with Elesclomol (0.003162 µM) it was 0.987; with Elesclomol (0.01 µM) it was 0.743. Also, the figures for the relative viability with Elesclomol (0.03162 µM) and with Elesclomol (0.1 µM) were 0.624 and 0.313, respectively.

With CAL-12T, the relative viability in the assay with Elesclomol + Vorinostat (first compound 0.003162 µM) worked out at 0.66; in the assay with Elesclomol + Vorinostat (first compound 0.01 µM), 0.245; with Elesclomol + Vorinostat (first compound 0.03162 µM), 0.101; in the assay with Elesclomol + Vorinostat (first compound 0.1 µM) it was 0.0721; with Elesclomol + AZD7762 (first compound 0.003162 µM), 0.622; with Elesclomol + AZD7762 (first compound 0.01 µM), 0.483. The relative viability is 0.3 with Elesclomol + AZD7762 (first compound 0.03162 µM); 0.17 with Elesclomol + AZD7762 (first compound 0.1 µM); 0.529 with Elesclomol + Lapatinib (first compound 0.003162 µM); 0.484 in the assay with Elesclomol + Lapatinib (first compound 0.01 µM); 0.103 in the assay with Elesclomol + Lapatinib (first compound 0.03162 µM); 0.0805 in the assay with Elesclomol + Lapatinib (first compound 0.1 µM). Also, the relative viability came to 0.265 with Elesclomol + Trametinib (first compound 0.003162 µM); 0.139 with Elesclomol + Trametinib (first compound 0.01 µM); 0.113 with Elesclomol + Trametinib (first compound 0.03162 µM); 0.114 with Elesclomol + Trametinib (first compound 0.1 µM); 0.939 in the assay with Elesclomol (0.003162 µM); 0.442 with Elesclomol (0.01 µM). The relative viability was 0.269 with Elesclomol (0.03162 µM) and 0.0778 with Elesclomol (0.1 µM).

On to NCI-H2085, for which the relative viability with Elesclomol + Vorinostat (first compound 0.003162 µM) was 0.835; with Elesclomol + Vorinostat (first compound 0.01 µM), 0.783; with Elesclomol + Vorinostat (first compound 0.03162 µM), 0.451; with Elesclomol + Vorinostat (first compound 0.1 µM) it was 0.308; in the assay with Elesclomol + AZD7762 (first compound 0.003162 µM) it was 1.04; with Elesclomol + AZD7762 (first compound 0.01 µM), 0.875. For the same cell line, the relative viability with Elesclomol + AZD7762 (first compound 0.03162 µM) was 0.394; with Elesclomol + AZD7762 (first compound 0.1 µM), 0.25; in the assay with Elesclomol + Lapatinib (first compound 0.003162 µM), 0.761; with Elesclomol + Lapatinib (first compound 0.01 µM), 0.521; with Elesclomol + Lapatinib (first compound 0.03162 µM) it was 0.397; in the assay with Elesclomol + Lapatinib (first compound 0.1 µM), 0.376. Besides, the relative viability stood at 0.608 in the assay with Elesclomol + Trametinib (first compound 0.003162 µM); 0.434 with Elesclomol + Trametinib (first compound 0.01 µM); 0.207 with Elesclomol + Trametinib (first compound 0.03162 µM); 0.174 with Elesclomol + Trametinib (first compound 0.1 µM); 0.998 with Elesclomol (0.003162 µM); 0.873 with Elesclomol (0.01 µM). Also, the figures for the relative viability in the assay with Elesclomol (0.03162 µM) and with Elesclomol (0.1 µM) were 0.569 and 0.385, respectively.
